Experimental data taken from patent publication US20220153875A1, “ANTIGEN-BINDING MOLECULE CONTAINING ANTIGEN-BINDING DOMAIN OF WHICH BINDING ACTIVITY TO ANTIGEN IS CHANGED DEPENDING ON MTA, AND LIBRARY FOR OBTAINING SAID ANTIGEN-BINDING DOMAIN” (Chugai Seiyaku Kabushiki Kaisha, priority 2019, published 2022).

Key:
SK-MES-1 cells = assay: Uptake of extracellular MTA by MTAP-non-deficient cells SK-MES-1 (MTA in culture solution, LC-MS); format: in vitro ADME; details: SK-MES-1, MTA added at 100 nM, 0, 4, 24, 48, 72 hours
Method: (§1) Since the MTA concentration in the culture solution of MTAP-deficient cells increases over time, it is inferred that there is an intracellular to extracellular MTA transfer pathway. However, in MTAP-non-deficient cells. MTA concentration in the culture solution was very low (FIG. 2), despite the expected presence of ˜1 uM MTA within the cells (FIG. 1). […] Thereafter, an MTA solution was added to the culture solution so as to make the MTA concentration 100 nM, and the cells were cultured for a predetermined time (MTA: Sigma, Catalog No. D5011-100MG).

HT-1376 cells = assay: Uptake of extracellular MTA by MTAP-non-deficient cells HT-1376 (MTA in culture solution, LC-MS); format: in vitro ADME; details: HT-1376, MTA added at 100 nM, 0, 4, 24, 48, 72 hours
Method: as §1

MTA concentration in the culture solution (SK-MES-1 cells): decreased over time
MTA concentration in the culture solution (HT-1376 cells): decreased over time
SMILES: CSC[C@H]1O[C@@H](n2cnc3c(N)ncnc32)[C@H](O)[C@@H]1O (stereo in doubt) [MTA, methylthioadenosine]
